# Laboratory results from patent US7666354B2, “Composition for sterilization comprising ω-alkoxyperoxycarboxylic acid” (FUJIFILM Corporation, priority 2004, dated 2010).
# Read-outs that look alike come from different tables or passages of the source.
# Experiments:
# [1] = tested on: Spores of Bacillus subtilis IFO3134; test: Evaluation of antimicrobial activity against spores (liquid culture and agar culture after a given reaction time); assay type: cell-based; details: for colony formation, 15 sec / colony formation, 1 min / colony formation, 5 min: Agar culture; for colony formation, 15 sec / bacterial proliferation, 15 sec: reaction time 15 sec; for bacterial proliferation, 15 sec / bacterial proliferation, 1 min / bacterial proliferation, 5 min: Liquid culture; for colony formation, 1 min / bacterial proliferation, 1 min: reaction time 1 min; for colony formation, 5 min / bacterial proliferation, 5 min: reaction time 5 min
# Description: Antimicrobial activity of the composition of the present invention against spores was evaluated.
# Spores of Bacillus subtilis IFO3134 was prepared based on the preparation method of a spores stock solution described in Notification from Ministry of Health, Labour and Welfare, “Ei-nyu(Milk Hygiene)” No. 10, Jan. 29, 1996 (Heisei 8). […] The bacteria were suspended in sterilized water (3 ml), and the suspension was heated at 65° C. for 30 minutes under shaking at 160 rpm to kill trophozoites. Resulting suspension was centrifuged at 3000 rpm, and the supernatant was discarded. Sterilized water (3 ml) was added to the residue to obtain a stock solution of spores. A solution of 1.1×10^9 cfu/mL was prepared using the stock solution and subjected to the following evaluations of antimicrobial activity.
# Evaluation of antimicrobial activity was conducted according to the method of Sakagami et al. (J. Antibact. Antifung. Agents., Vol. 26, 605-601, 1998). Specifically, an aqueous solution (225 μl) of each sample which was filtered with 0.2 μm paper filter was added with spores suspension (25 μl) prepared by the above described method. The mixture (concentration of bacteria: 1.1×10^8 cfu/mL) was reacted for a given period of time. From the reaction solution, 2 μL sample was corrected and added to 2 ml of SCDLP culture medium (Nissui Pharmaceutical Co., Ltd.). The medium was cultured at 37° C. under shaking at 160 rpm for 48 hours, and the presence of bacterial growth was examined. At the same time, the reaction solution (25 μL) was added to a mixture solution (225 μL) of 0.1N sodium thiosulfate and 1% catalase to inactivate a peroxycarboxylic acid and hydrogen peroxide. Resulting solution (100 μL) was inoculated to SCDLP culture agar medium (Nissui Pharmaceutical Co., Ltd., 25 mL/petri dish). The medium was cultured at 37° C. for 48 hours, and examined visually for colony formation.
# Each solution prepared in Example 1, 2, 3-c, 3-f, and 3-j was diluted with distilled water for injection (Hikari pharmaceutical company) so as to obtain a solution of peroxycarboxylic acid at a concentration of 40 mM, which was used as composition 1, 2, 3, 24, and 28. The compositions were evaluated for their antimicrobial activity using the above described method. Aqueous hydrogen peroxide which contains hydrogen peroxide at a higher concentration than the hydrogen peroxide concentration of the above diluted solutions was separately evaluated in a similar manner, and results are also shown in Table 1.
# [2] = tested on: Spores of Bacillus subtilis IFO3134; test: as above; assay type: cell-based; details: Table 2, Acecide, 40 mM peracetic acid
# [3] = cited from earlier work
# [4] = Stability Evaluation 1: peracid concentration after mixing carboxylic acid and 50% aqueous hydrogen peroxide (potassium iodide/sodium thiosulfate titration); assay type: physicochemical; details: for peracid concentration in composition, 3 days after mixing: day 3; for peracid concentration in composition, 22 days after mixing: day 22; for peracid concentration in composition, 6 days after mixing: day 6
# Excerpt: A carboxylic acid (30 mmol) and 50% aqueous hydrogen peroxide (45 mmol) were mixed, and concentration of generated peracid was quantified by potassium iodide/sodium thiosulfate titration as described in Example 1 at a constant time interval. As the carboxylic acid, 3-methoxypropionic acid and 3-ethoxypropionic acid were used. As a control for comparison, methoxyacetic acid was used.
# Numbers in Table 3 indicates peracid concentration (mM) in compositions.
# [5] = tested on: spores; details: recently reported; cited from earlier work
# [6] = Stability Evaluation 2: pH dependency of peroxycarboxylic acid concentration; assay type: physicochemical; details: 80 mM solution, FIG. 1
# Description: (§1) A aqueous composition of the peroxycarboxylic acid which was obtained in the above described Synthesis of compound 3 (1.6 M, 100 ml) was diluted by addition of water (50 ml), and the mixture was left at 25° C. for 7 days. Quantification was conducted by potassium iodide/sodium thiosulfate titration as described in Example 1.
# The aqueous composition was diluted with water to adjust the peroxycarboxylic acid concentration at 80 mM. Three solutions of pH 1.7, 3.0, and 5.0 were prepared, and peroxycarboxylic acid concentration was quantified by potassium iodide/sodium thiosulfate titration as described in Example 1 at a constant time intervals. The pH was adjusted by addition of dipotassium hydrogen phosphate. Assuming that peroxycarboxylic acid concentration of 80 mM is 100%, changes in peroxycarboxylic acid concentration are shown in FIG. 1.
# [7] = Judgment whether the composition meets the criteria of the fifth class of hazardous material in the Fire Defense Law (thermal analysis, pressure container test); details: aqueous composition: Compound 3 7% w/w, hydrogen peroxide 13% w/w, 3-propoxypropionic acid 32% w/w, water 48% w/w
# Description: as §1, with “mixed with” for “diluted by addition of”, “ml) for dilution,” for “ml),”, “14 days. The solution was further kept at 4° C. for 10” for “7”
# The above aqueous composition was subjected to judgment whether or not the composition meets the criteria of the fifth class of hazardous material in the Fire Defense Law.
# [8] = Table 2, Acecide, 40 mM peracetic acid
# [9] = carboxylic acid 30 mmol + 50% aqueous hydrogen peroxide 45 mmol
structure (smiles),measurement,setting,value
CC(=O)OO [peracetic acid],"colony formation, 15 sec",[1]; [8],+
same,"bacterial proliferation, 15 sec",[1]; [8],+
same,"colony formation, 1 min","[2]; Agar culture, reaction time 1 min",+
same,"colony formation, 5 min","[2]; Agar culture, reaction time 5 min",−
same,"bacterial proliferation, 1 min","[2]; Liquid culture, reaction time 1 min",+
same,"bacterial proliferation, 5 min","[2]; Liquid culture, reaction time 5 min",−
CCC(=O)OO [peroxypropionic acid],sterilizing action,"[3]; J. Hyg. Epid. Microbiol. Immun., 9, pp. 220-226 (1965)",effective sterilizing action
"COCCC(=O)OO [Compound 1, 3-methoxyperoxypropionic acid]","peracid concentration in composition, 3 days after mixing",[4]; [9],160 mM
same,"peracid concentration in composition, 5 days after mixing","[4]; carboxylic acid 30 mmol + 50% aqueous hydrogen peroxide 45 mmol, day 5",250 mM
same,"peracid concentration in composition, 22 days after mixing",[4]; [9],650 mM
same,stability: change of peracid concentration with passage of time (in words),[4]; summary of Table 3,any decrease in peracid amount was not observed
same,"colony formation, 15 sec",[1]; peroxycarboxylic acid 40 mM,+
same,"colony formation, 1 min",[1]; peroxycarboxylic acid 40 mM,+
same,"colony formation, 5 min",[1]; peroxycarboxylic acid 40 mM,−
same,"bacterial proliferation, 15 sec",[1]; peroxycarboxylic acid 40 mM,+
same,"bacterial proliferation, 1 min",[1]; peroxycarboxylic acid 40 mM,+
same,"bacterial proliferation, 5 min",[1]; peroxycarboxylic acid 40 mM,−
O=C(CCOCCO)OO [reference compound],"antimicrobial activity compared with Composition 1, Composition 2",[1]; evaluated in a similar manner to Example 4,"lower than that of Composition 1, Composition 2 or the like"
"CCOCCC(=O)OO [Compound 2, 3-ethoxyperoxypropionic acid]",stability: change of peracid concentration with passage of time (in words),[4],any decrease in peracid amount was not observed
same,"peracid concentration in composition, 3 days after mixing",[4]; [9],160 mM
same,"peracid concentration in composition, 6 days after mixing",[4]; [9],310 mM
same,"peracid concentration in composition, 22 days after mixing",[4]; [9],700 mM
same,"colony formation, 15 sec",[1]; peroxycarboxylic acid 40 mM,+
same,"colony formation, 1 min",[1]; peroxycarboxylic acid 40 mM,+
same,"colony formation, 5 min",[1]; peroxycarboxylic acid 40 mM,−
same,"bacterial proliferation, 15 sec",[1]; peroxycarboxylic acid 40 mM,+
same,"bacterial proliferation, 1 min",[1]; peroxycarboxylic acid 40 mM,+
same,"bacterial proliferation, 5 min",[1]; peroxycarboxylic acid 40 mM,−
O=C(CCOCCCl)OO [Compound 28],"colony formation, 15 sec",[1]; peroxycarboxylic acid 40 mM,+
same,"colony formation, 1 min",[1]; peroxycarboxylic acid 40 mM,+
same,"colony formation, 5 min",[1]; peroxycarboxylic acid 40 mM,−
same,"bacterial proliferation, 15 sec",[1]; peroxycarboxylic acid 40 mM,+
same,"bacterial proliferation, 1 min",[1]; peroxycarboxylic acid 40 mM,+
same,"bacterial proliferation, 5 min",[1]; peroxycarboxylic acid 40 mM,−
"OO [Hydrogen peroxide, reference compound]","colony formation, 15 sec",[1]; hydrogen peroxide 2000 mM,+
same,"colony formation, 1 min",[1]; hydrogen peroxide 2000 mM,+
same,"colony formation, 5 min",[1]; hydrogen peroxide 2000 mM,+
same,"bacterial proliferation, 15 sec",[1]; hydrogen peroxide 2000 mM,+
same,"bacterial proliferation, 1 min",[1]; hydrogen peroxide 2000 mM,+
same,"bacterial proliferation, 5 min",[1]; hydrogen peroxide 2000 mM,+
CCOCCCC(=O)OO [Compound 24],"colony formation, 15 sec",[1]; peroxycarboxylic acid 40 mM,+
same,"colony formation, 1 min",[1]; peroxycarboxylic acid 40 mM,+
same,"colony formation, 5 min",[1]; peroxycarboxylic acid 40 mM,−
same,"bacterial proliferation, 15 sec",[1]; peroxycarboxylic acid 40 mM,+
same,"bacterial proliferation, 1 min",[1]; peroxycarboxylic acid 40 mM,+
same,"bacterial proliferation, 5 min",[1]; peroxycarboxylic acid 40 mM,−
O=CCCCC=O [glutaraldehyde],sterilizing effect to spores,[5],weak sterilizing effect to spores
"CCCOCCC(=O)OO [Compound 3, peroxy-3-propoxypropionic acid]","change in peroxycarboxylic acid concentration (storage stability), pH lower than 2",[6]; pH 1.7,a decrease in peroxycarboxylic acid concentration was faster
same,"storage stability, pH 3.0",[6]; pH 3.0,significantly high storage stability
same,"change in peroxycarboxylic acid concentration (storage stability), pH 5 or higher",[6]; pH 5.0,a decrease in peroxycarboxylic acid concentration was faster
same,classification as fifth class of hazardous material in the Fire Defense Law,[7],did not classified in the fifth class of hazardous material
same,pressure container test result,[7],rank 3
same,thermal analysis result,[7],no hazardous
same,"colony formation, 15 sec",[1]; peroxycarboxylic acid 40 mM,+
same,"colony formation, 1 min",[1]; peroxycarboxylic acid 40 mM,+
same,"bacterial proliferation, 15 sec",[1]; peroxycarboxylic acid 40 mM,+
same,"bacterial proliferation, 1 min",[1]; peroxycarboxylic acid 40 mM,+
same,"bacterial proliferation, 5 min",[1]; peroxycarboxylic acid 40 mM,−
"COCC(=O)OO [peroxy-methoxyacetic acid, reference compound]",stability: change of peracid concentration with passage of time (in words),[4],unstable
same,"peracid concentration in composition, 3 days after mixing",[4]; [9],530 mM
same,"peracid concentration in composition, 6 days after mixing",[4]; [9],540 mM
same,"peracid concentration in composition, 10 days after mixing","[4]; carboxylic acid 30 mmol + 50% aqueous hydrogen peroxide 45 mmol, day 10",380 mM
same,"peracid concentration in composition, 14 days after mixing","[4]; carboxylic acid 30 mmol + 50% aqueous hydrogen peroxide 45 mmol, day 14",340 mM
same,"peracid concentration in composition, 24 days after mixing","[4]; carboxylic acid 30 mmol + 50% aqueous hydrogen peroxide 45 mmol, day 24",210 mM
same,antibacterial effect compared with peracetic acid,"[3]; J. Molecular Catalysis B: Enzymatic, 19-20, pp. 499-505 (2002)",weaker antibacterial effect than that of peracetic acid
